Data reported in paper PMC7555119, “Characterization of Novel Synthetic Polyphenols: Validation of Antioxidant and Vasculoprotective Activities” (Antioxidants, 2020).
In brackets after ≈: the same amount, converted by molar mass. Several values for one entry are separate records, joined by “and”; a condition that tells them apart may be missing. Equal values may be shown once. Read-outs that look alike come from different tables or passages of the source.

What was measured:
[1] = Oxygen radical absorbance capacity (ORAC) assay
Experimental: The ORAC assay was performed following Ou et al., as modified by Garcés-Rimón et al.. All samples and reagents were dissolved in phosphate buffer (75 mM; pH 7.4). […] The fluorescence was recorded at 40 °C every 55 s for 95 min using a fluorimeter (SpectraMax M2; Molecular Devices, California, USA), with excitation and emission wavelengths of 480 and 520 nm, respectively. All samples were tested in triplicate. ORAC values were expressed as μmol of Trolox equivalents (TE)/μmol of pure compound.

[2] = ABTS radical cation scavenging assay
Experimental: The 2,2′-azino-bis (3-ethylbenzothiazoline-6-sulfonic acid) diammonium salt (ABTS) assay was performed according to Re et al. and modified by Oki et al. for its use in microplates. Samples were diluted in methanol. An ABTS^•+ stock solution was prepared by adding 44 μL of potassium persulfate (140 mmol/L) to a 2.5 mL ABTS^•+ aqueous solution (7 mmol/L). The working solution of the radical ABTS^+ was prepared by diluting the stock solution 1:75 (v/v) in a sodium phosphate buffer (5 mmol/L, pH 7.4) to obtain an absorbance value of 0.7±0.02 at 734 nm. Samples (30 μL) were added to 270 μL of the working solution of ABTS^•+ in a microplate. Absorbance was measured at 734 nm and 30 °C for 20 min, every 5 min in a Synergy HT plate spectrophotometer (Biotek Instruments, Winoosky, VT, USA). A calibration curve was made with Trolox (20–250 μM). All samples were analyzed in triplicate. Results were expressed in μmol TE/μmol of pure compound, as for the ORAC assays.

[3] = DPPH free radical scavenging assay (RSA); conditions: for concentration down to which RSA ability is maintained independently of time: 10 min to 2 h; for RSA capacity fold higher compared to resveratrol: after 10 min, from IC50; for RSA percentage: highest concentration 2 mM, 10 min
Experimental: For the 2,2′-diphenylpicrylhydrazyl (DPPH) assay, antioxidant compounds were dissolved in ethanol with a stock concentration of 4 mM and stirred for 24 h. DPPH (Alfa Aesar) was also dissolved in ethanol at 0.127 mM. Different compound solutions were prepared by serial dilutions of each stock solution ([…]). […] Amounts of 80 µL of each solution and 80 µL of DPPH were added in a 96-well plate. The absorbance was measured at different times (10, 20 and 30 min and 1 and 2 h) by a Multi-Detection Microplate Reader Synergy HT (λMAX = 515 nm). Radical scavenging activity (RSA, %) was calculated using Equation (1) (1) RSA(%)=ADPPH−AEXTRACT/ADPPH·100 where AEXTRACT and ADPPH correspond to the absorbance of DPPH with and without the extracts, respectively. Eight replicates were used for each compound and results were expressed as mean value ± standard deviation. The RSA half-maximal inhibitory concentration (IC50) values were calculated from the relationship curve of RSA versus concentrations by a non-linear fit using the software GraphPad Prism 7.

[4] = Stability in aqueous media (H2O/acetonitrile 80:20, HPLC-MS); type: physicochemical; conditions: for stability in aqueous media: H2O/acetonitrile (80:20%), room temperature, checked for 60 days; for Aqueous Stability (%): remaining pure compound (HPLC) after two months at room temperature in aqueous solution (+20% acetonitrile)
From the text: The solutions were checked by HPLC-MS at regular intervals of time for 60 days. […] The rest of the compounds suffered progressive degradation, with complete disappearance from the solution after 10 or 20 days. The most unstable polyphenol derivatives were 4 and 10 (Figure S1), having both two p-dihydroxy substitutions in the phenyl rings, which points to the rapid and easy oxidation to the p-hydroquinone. From the four compounds with three phenyl rings, only one was stable in aqueous solution (17).

[5] = test system: human dermal fibroblasts (HDF); assay: Cell viability, AlamarBlue assay; type: cell-based; conditions: for IC50: 24 h, AlamarBlue, non-linear fit
Experimental: Cytotoxicity of selected antioxidant compounds was assessed using human dermal fibroblasts (HDF, Innoprot, P10856) and an AlamarBlue assay. Human fibroblasts were grown and maintained using Dulbecco’s Modified Eagle Medium high glucose (DMEM, Sigma Aldrich, D6171), supplemented with 10% Fetal Bovine Serum (FBS), 2% L-glutamine and 1% penicillin/streptomycin. Cells were incubated at 37 °C, 95% relative humidity and 5% CO2. Additionally, DMEM-high glucose, HEPES, no phenol red (Gibco, 2106329) was used to prepare the AlamarBlue solution. Stock solutions of the antioxidant compounds 3, 8, 15 and 17 were prepared in dimethyl sulfoxide (DMSO). Compound 7 was not soluble enough in DMSO to obtain a cell viability IC50 value. Serial dilutions of the antioxidant compounds were prepared using the previously mentioned stock solutions and DMEM. Final DMSO concentration was maintained lower than 1% v/v in the cell culture experiments. HDF were seeded at 9 × 10^4 cells/well in a 96-well plate and incubated for 24 h. The medium was replaced by the corresponding antioxidant solutions and incubated for an additional 24 h. Then, compounds were removed, cells were washed with Dulbecco’s Phosphate Buffered Saline (PBS, Sigma Aldrich) and treated with a 10% v/v AlamarBlue (Invitrogen) solution prepared in DMEM without phenol red. After 3 h of incubation, absorbance was monitored at 570 nm by a Multi-Detection Microplate Reader Synergy HT. Cells treated with DMEM without any antioxidant compound were used as the 100% viability control. Eight replicates were used for each antioxidant solution. IC50 values were obtained by a non-linear fit using the software GraphPad Prism 7.

[6] = test system: NADPH oxidase activity in human microvascular endothelial cells (HMEC-1); assay: NADPH oxidase activity in endothelial cells stimulated with Angiotensin II; type: cell-based; conditions: HMEC-1, AngII 1 nmol/L 6 h, compound added 30 min before
Experimental: The human microvascular endothelial cells line (HMEC-1) (ATCC®, Middlesex, UK; CRL-3243™) was used. Cells were cultured according to the manufacturer instructions with MCDB131 medium (Corning, NY, USA, Cat. No. 702564) supplemented with 10 ng/mL epidermal growth factor (Sigma-Aldrich, Alcobendas, Spain), 1 μg/mL hydrocortisone (Sigma-Aldrich), 10 mmol/L glutamine (Sigma-Aldrich), 10% fetal bovine serum (FBS, Sigma-Aldrich), 100 U/mL of penicillin and 100 µg/mL of streptomycin. At 80% confluence, cells were serum-deprived for 24 h before stimulation. HMEC were treated with AngII (1 nmol/L for 6 h; Sigma-Aldrich) in the absence or in the presence of the different compounds that were added 30 min before stimulation.
(§1) The O2 production generated by NADPH oxidase was determined by a chemiluminescence assay. Briefly, endothelial cells or aortic segments were homogenized in phosphate buffer (50 mmol/L KH2PO4, 1 mmol/L EGTA, 150 mmol/L sucrose, pH 7.4). The reaction was started by the addition of a lucigenin (5 μmol/L) and NADPH (100 μmol/L; Sigma-Aldrich) mixture to the protein sample in a final volume of 250 μL. Chemiluminescence was determined every 2.4 s for 3 min in a microtiter plate luminometer (Enspire Perkin Elmer). Basal activity in the absence of NADPH was subtracted from each reading and normalized to protein concentration. Data were normalized vs. control situation.

[7] = test system: NADPH oxidase activity in segments of aorta from C57BL6/J mice; assay: NADPH oxidase activity in aortic segments stimulated ex vivo with IL-1β; conditions: IL-1β 10 ng/mL 6 h
Experimental: Aortic segments from three-month-old C57BL6/J mice were incubated with IL-1β (10 ng/mL, 6 h, Sigma Aldrich) in the presence and in the absence of the different compounds that were added 30 min before stimulation.
as §1

[8] = Aqueous thermodynamic solubility in H2O (UV); type: physicochemical; conditions: water, thermodynamic from solid
From the text: 4) Log P and aqueous solubility of selected compounds.
Table S2. Theoretical Log P values and aqueous thermodynamic solubility measured for
Comp `Chemical Structure MW LogP Calc Aqueous Solubility a
a Thermodynamic solubility in H 2O (UV). […]

[9] = test system: Saccharomyces cerevisiae strain BY4741; assay: In vivo antioxidant capacity in stressed yeasts (growth recovery, survivors); type: cell-based
Experimental: Saccharomyces cerevisiae haploid strain BY4741 was used as described previously. Briefly, 20 μL of glycerol stock culture was revived in 5ml of YPD medium (1% yeast extract, 2% bacteriological peptone and 2% dextrose) at 28 °C, with shaking (210 rpm). Fifty microliters of 20-h-old culture was used to inoculate fresh 5ml YPD (control medium) or 5 mL of oxidative stress medium (YPOxD: YPOxD; 1% yeast extract, 2% bacteriological peptone, 1% dextrose and 3% H2O2). Stress (and control) was conducted during 16h at 28 °C, with shaking (220 rpm).
Growth rate was determined from growth kinetics using the BioScreen C plate-reader system (OY Growth Curves Ab Ldt., Helsinki, Finland). Stressed yeast cultures (16 h old) were used to inoculate 200 µl of fresh media to an initial OD595 of 0.05–0.07, being distributed in 100-well honeycomb plates (Oy Growth Curves) in triplicate per each condition (each different dose of each compound). Plates were then incubated at 28 °C for 72h, with shaking (High force), taking OD measurement each 15 min in the Bioscreen C. Maximum growth rate (μmax) and biomass production (carrying capacity) were determined in R using ‘Growthcurver’ package version 0.3 [24]. Growth curves were constructed in EXCEL, represented as mean ± SEM (standard error of mean). […] In addition, to measure survival after oxidative stress and antioxidant effectiveness of each compound, yeast cells from each challenge were serially diluted in 96-well plates, and each dilution was spotted (with a 8 × 6 stainless steel replica platter from SIGMA) in triplicate to determine viable colonies after 24–48 h at 28 °C. Survivors (mean ± SEM) were compared between treatments with one-way ANOVA, Fisher’s LSD test, with alpha at 0.05 for significance.

[10] = compound needed to reach 50% RSA after 10 min, read-out: DPPH PSA IC50 10 min
[11] = read-out: DPPH PSA IC50 2 h, compound needed to reach 50% RSA after 2 h

SMILES | ORAC [1] | ORAC ([1]; TE: Trolox Equivalents) | ABTS [2] | ABTS (values in text) [2] | concentration down to which RSA ability is maintained independently of time [3] | RSA capacity fold higher compared to resveratrol [3] | IC50 [3, 10] | RSA percentage [3] | IC50 [3, 11] | stability in aqueous media [4] | Aqueous Stability (%) [4] | effect on NADPH oxidase activity induced by Angiotensin II [6] | effect on NADPH oxidase activity induced by IL-1β [7] | solubility [8] | melting point | IC50 [5] | IC50 ([5]; Homo sapiens, Fibroblast) | further results
O=C(Cc1ccc(O)c(O)c1)Nc1ccc(O)cc1 [Compound 7, 2-(3′,4′-Dihydroxyphenyl)-N-(4-hydroxyphenyl)acetamide] | 19.2 ± 0.4 µmol of trolox/µmol of pure compound and 19.2 ± 0. µmol of trolox/µmol of pure compound | > 19 TE | 8.12 ± 0.09 µmol of trolox/µmol of pure compound | 8.1 TE | 0.063 mM | 2.8 fold | 24.1 µM | 82% | 23.3 µM | sufficiently stable | 90% | decreasing NADPH oxidase activity levels in the same order as resveratrol | significant inhibition of the IL-1β effects | 3100 ± 100 µg/mL (≈ 12 mM) | 192 to 194 °C | – | – | cytotoxic effects ([5]; range where soluble in DMSO (up to 6 mM)): did not show any significant cytotoxic effects
O=C(Cc1cc(O)ccc1O)Nc1ccc(O)cc1 [Compound 3, 2-(2′,5′-Dihydroxyphenyl)-N-(4-hydroxyphenyl)acetamide] | 19.2 ± 0.2 µmol of trolox/µmol of pure compound | > 19 TE | 3.27 ± 0.1 µmol of trolox/µmol of pure compound | 3.2 TE | 0.031 mM | 8 fold | 8.3 µM | ~78% | 6.77 µM | sufficiently stable | 77% | decreasing NADPH oxidase activity levels in the same order as resveratrol | significant inhibition of the IL-1β effects | 1300 ± 100 µg/mL (≈ 5.01 mM) | 185 to 187 °C (dec.) | 246 µM and 240 µM | 246 µM | RSA ([3]; 0.031 mM, maintained from 10 min to 2 h): 78%; cell viability IC50 fold lower than compounds 17 and 8 [5]: 5–7 fold
O=C(Cc1ccc(O)cc1O)Nc1ccc(O)cc1 [Compound 8, 2-(2′,4′-Dihydroxyphenyl)-N-(4-hydroxyphenyl)acetamide] | 19.3 ± 0.5 µmol of trolox/µmol of pure compound | > 19 TE | 5.00 ± 0.09 µmol of trolox/µmol of pure compound | – | – | – | 151 µM | 67% | 64.2 µM | sufficiently stable | 98% | – | – | 4100 ± 100 µg/mL (≈ 15.8 mM) | 186 to 189 °C | > 1400 µM | 1410 µM | growth rate (r) recovery of stressed yeast ([9]; H2O2-stressed BY4741, doses 2, 20 and 40 μg): dose-related antioxidant effect; carrying capacity (k) recovery of stressed yeast ([9]; H2O2-stressed BY4741, each dose tested): able to recover the carrying capacity of yeast cells similarly as control antioxidants
